Literature values as cited in patent US20250367363A1, “METHODS OF LOCAL IRRIGATION FOR TREATING INFECTIONS” (Osteal Therapeutics, Inc., priority 2023, published 2025).
Like-named read-outs stand apart in the source and are kept apart here. *1 amine or outer side, *2 acyl side, *3 side chain or, on linkers, in order; H or OH if unused. Where a SMILES comes first, the peptide text is derived from it. Bridges are numbered along the chain shown (N, C = ends). [ ]: non-standard residue; d: D form. The star is where a group is joined. hTyr(3S-OH,4S-OH,3'-OSO3H) = N[C@H](C(=O)O)[C@H](O)[C@@H](O)c1ccc(O)c(OS(=O)(=O)O)c1; pTerphenylCO(4''-OnC5H11) = CCCCCOc1ccc(-c2ccc(-c3ccc(C(=O)*)cc3)cc2)cc1; Orn(4R-OH,5R-OH) = O=C([C@H](C[C@@H](O)[C@@H](O)N[*:3])N[*:1])[*:2]; hTyr(3S-OH,4S-OH) = N[C@H](C(=O)O)[C@H](O)[C@@H](O)c1ccc(O)cc1; Pro(3S-OH,4S-Me) = C[C@H]1CN[C@H](C(=O)O)[C@H]1O; X1 = CCCCCOc1ccc(-c2cc(-c3ccc(C(=O)*)cc3)no2)cc1; Gln(3R-OH) = NC(=O)C[C@@H](O)[C@H](N)C(=O)O; Hyp = O=C(O)[C@@H]1C[C@@H](O)CN1

Tests used:
[1] = systemic

Molecule | Safe Daily Dose ([1]; Table 2 antibiotics) | Safe IV Concentration (Table 2 antibiotics) [mg/mL] | Safe Daily Dose ([1]; Table 3 antifungal agents) [mg] | Safe IV Concentration (Table 3 antifungal agents) [mg/mL]
C[C@@H](c1nc(-c2ccc(C#N)cc2)cs1)[C@](O)(Cn1cncn1)c1cc(F)ccc1F [Isavuconazole] | – | – | 1116 | 1.488
CN[C@H](CC(C)C)C(=O)N[C@H]1C(=O)N[C@@H](CC(N)=O)C(=O)N[C@H]2C(=O)N[C@H]3C(=O)N[C@H](C(=O)N[C@H](C(=O)O)c4cc(O)cc(O)c4-c4cc3ccc4O)[C@H](O)c3ccc(c(Cl)c3)Oc3cc2cc(c3O[C@@H]2O[C@H](CO)[C@@H](O)[C@H](O)[C@H]2O[C@H]2C[C@](C)(N)[C@H](O)[C@H](C)O2)Oc2ccc(cc2Cl)[C@H]1O [Vancomycin] | 45 to 60 mg/kg/day | 5 | – | –
CCCCCOc1ccc(-c2cc(-c3ccc(C(=O)N[C@H]4C[C@@H](O)[C@@H](O)NC(=O)[C@@H]5[C@@H](O)[C@@H](C)CN5C(=O)[C@H]([C@H](O)CC(N)=O)NC(=O)[C@H]([C@H](O)[C@@H](O)c5ccc(O)c(OS(=O)(=O)O)c5)NC(=O)[C@@H]5C[C@@H](O)CN5C(=O)[C@H]([C@@H](C)O)NC4=O)cc3)no2)cc1 [Micafungin] (X1-[Orn(4R-OH,5R-OH)]T[Hyp][hTyr(3S-OH,4S-OH,3'-OSO3H)][Gln(3R-OH)][Pro(3S-OH,4S-Me)]; lactam 1-C) | – | – | 150 | 1.5
C[C@@H]1[C@H](O)[C@@H](C)/C=C/C=C/C=C/C=C/C=C/C=C/C=C/[C@H](O[C@@H]2O[C@H](C)[C@@H](O)[C@H](N)[C@@H]2O)C[C@@H]2O[C@](O)(C[C@@H](O)C[C@@H](O)[C@H](O)CC[C@@H](O)C[C@@H](O)CC(=O)O[C@H]1C)C[C@H](O)[C@H]2C(=O)O [Amphotericin B] | – | – | – | 0.25
CCCCCOc1ccc(-c2ccc(-c3ccc(C(=O)N[C@H]4C[C@@H](O)[C@@H](O)NC(=O)[C@@H]5[C@@H](O)[C@@H](C)CN5C(=O)[C@H]([C@@H](C)O)NC(=O)[C@H]([C@H](O)[C@@H](O)c5ccc(O)cc5)NC(=O)[C@@H]5C[C@@H](O)CN5C(=O)[C@H]([C@@H](C)O)NC4=O)cc3)cc2)cc1 [Anidulafungin] ({pTerphenylCO(4''-OnC5H11)}-[Orn(4R-OH,5R-OH)]T[Hyp][hTyr(3S-OH,4S-OH)]T[Pro(3S-OH,4S-Me)]; lactam 1-C) | – | – | 200 | 1
CC[C@H](C)C[C@H](C)CCCCCCCCC(=O)N[C@H]1C[C@@H](O)[C@@H](NCCN)NC(=O)[C@@H]2[C@@H](O)CCN2C(=O)[C@H]([C@H](O)CCN)NC(=O)[C@H]([C@H](O)[C@@H](O)c2ccc(O)cc2)NC(=O)[C@@H]2C[C@@H](O)CN2C(=O)[C@H]([C@@H](C)O)NC1=O [Caspofungin] | – | – | 70 | 0.5

Now from value to molecule, other results behind:

Safe Daily Dose ([1]; Table 2 antibiotics) | Safe IV Concentration (Table 2 antibiotics) [mg/mL] | Molecule | Safe Daily Dose ([1]; Table 3 antifungal agents) [mg] | Safe IV Concentration (Table 3 antifungal agents) [mg/mL]
2.7 g/day | 18 | CCC[C@@H]1C[C@@H](C(=O)N[C@@H]([C@H]2O[C@H](SC)[C@H](O)[C@@H](O)[C@H]2O)[C@H](C)Cl)N(C)C1 [Clindamycin] | – | –
6 g/day | 330 | Cc1nnc(SCC2=C(C(=O)O)N3C(=O)[C@@H](NC(=O)Cn4cnnn4)[C@H]3SC2)s1 [Cefazolin] | – | –
1.2 g/day | 2 | O=C(O)c1cn(C2CC2)c2cc(N3CCNCC3)c(F)cc2c1=O [Ciprofloxacin] | – | –
7 mg/kg/day | 0.2 | Gentamicin | – | –
6 g/day | 40 | CO/N=C(\C(=O)N[C@@H]1C(=O)N2C(C(=O)[O-])=C(C[N+]3(C)CCCC3)CS[C@H]12)c1csc(N)n1 [Cefepime] | – | –
